Test results as given in patent US20090028925A1, “Novel Phosphinic Acid-Containing Thyromimetics” (priority 2005, published 2009).

Assays:
plasma cholesterol = assay: Cholesterol lowering in hypercholesterolemic rats; assay type: in vivo; details: hypercholesterolemic rats, 0.5 mg/kg/d orally
serum cholesterol = assay: Subacute study in cholesterol fed rats, PO: serum cholesterol; assay type: in vivo; details: PO once a day for seven days
Procedure: (§1) Methods: […] Compound 13-1-cis and Compound 18 were administered PO once a day for seven days. Serum TSH is measured using an enzyme immunoassay (EIA) kit designed for rat TSH (Amersham Pharmacia Biotech, Arlington Heights, Ill.). Expression levels of liver genes (e.g., the LDL-receptor, apoB, cpt-1, spot14 and apoAI) and heart genes ([…]2, HCN2, Kv1.5, MHCα, MHCβ, Alpha1c) are quantified by Northern blot analysis or by RT-PCR. For Northern analyses, RNA is isolated from liver tissue by a guanidinium thiocyanate method, and total RNA is obtained using an RNeasy column (Quiagen). mRNA is separated on a 1% agarose gel and transferred to a nylon membrane. Oligonucleotides specific for the complementary gene sequences are used to make ^32P-labeled probes (Multiprime DNA labeling systems, Amersham Pharmacia Biotech). Following hybridization of the probes to the nylon membranes, radioactivity is assessed on a blue film (Eastman Kodak Co), and the resulting image quantified using the appropriate software. RT-PCR is performed using an iCycler instrument (Biorad) using appropriate primers by means of standard methodology [[…] et al. (2000) Life Sciences 66: 1683-94]. GPDH activity in liver and heart are measured as described in Example B. […] Alternatively, expression levels of the corresponding genes are determined by Northern blot analysis or RT-PCR as described above.

[1] = system: CYP3A (cytochrome P450-3A (CYP3A4)); assay: Prodrug activation in rat liver microsomes; assay type: in vitro ADME; details: liver microsomes from dexamethasone-treated rats; dexamethasone treated rat microsomes, formation of Compound 7
From the text: (§2) The purpose of these studies was to determine the kinetics of activation of prodrugs of thyromimetics in microsomal preparations. Microsomes contain the P450 enzyme that is required for the activation of many of the prodrugs prepared. The Km, Vmax, and intrinsic clearance values determined are measures of prodrug affinity for the microsomal enzymes, the rate at which the prodrug is activated, and the catalytic efficiency with which the prodrug is activated, respectively.
(§3) Methods: Activation of prodrugs by dexamethasone treated rat hepatocyte microsomes. Microsomes were isolated by standard differential centrifugation methods from dexamethasone-treated rats. The treatment is to increase cytochrome P450-3A (CYP3A4) activity. Induction of CYP3A4 was confirmed by an increase in testosterone hydroxylation.
(§4) Various concentrations of HepDirect™ Compound 7 were incubated with rat hepatocytes microsomes. Compound 7 formation was analyzed by HPLC using UV-Vis detection. Kinetic parameters (Vmax and Km) were calculated from the transformed data and the intrinsic clearance calculated from the kinetic parameters.

[2] = Prodrug activation in rat liver microsomes; assay type: in vitro ADME
From the text: as §2, §3, §4

[3] = biological target: T1, human thyroid hormone receptors TRβ1 (Homo sapiens, UniProt P10828); assay: Receptor binding to TRβ1 (gel filtration and scintillation proximity assay, labeled T3); details: SPA data; read-out: Ki TRβ
T1 construct: made in house; host or cells: Sf9 insect cells (baculovirus)
T1 sequence (P10828 1-461): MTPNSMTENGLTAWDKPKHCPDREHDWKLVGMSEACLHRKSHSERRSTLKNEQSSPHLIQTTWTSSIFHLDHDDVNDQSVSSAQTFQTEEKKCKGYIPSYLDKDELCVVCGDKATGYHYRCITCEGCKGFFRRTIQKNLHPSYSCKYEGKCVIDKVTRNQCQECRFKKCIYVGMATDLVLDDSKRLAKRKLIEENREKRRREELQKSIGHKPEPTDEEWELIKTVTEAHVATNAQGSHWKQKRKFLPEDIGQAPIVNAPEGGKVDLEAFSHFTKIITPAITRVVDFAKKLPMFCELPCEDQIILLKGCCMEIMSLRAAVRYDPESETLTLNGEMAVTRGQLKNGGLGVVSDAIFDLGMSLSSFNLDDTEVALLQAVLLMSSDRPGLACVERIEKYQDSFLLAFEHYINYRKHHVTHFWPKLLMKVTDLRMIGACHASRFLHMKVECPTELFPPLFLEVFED
T1 sequence (P19793 1-462 partner): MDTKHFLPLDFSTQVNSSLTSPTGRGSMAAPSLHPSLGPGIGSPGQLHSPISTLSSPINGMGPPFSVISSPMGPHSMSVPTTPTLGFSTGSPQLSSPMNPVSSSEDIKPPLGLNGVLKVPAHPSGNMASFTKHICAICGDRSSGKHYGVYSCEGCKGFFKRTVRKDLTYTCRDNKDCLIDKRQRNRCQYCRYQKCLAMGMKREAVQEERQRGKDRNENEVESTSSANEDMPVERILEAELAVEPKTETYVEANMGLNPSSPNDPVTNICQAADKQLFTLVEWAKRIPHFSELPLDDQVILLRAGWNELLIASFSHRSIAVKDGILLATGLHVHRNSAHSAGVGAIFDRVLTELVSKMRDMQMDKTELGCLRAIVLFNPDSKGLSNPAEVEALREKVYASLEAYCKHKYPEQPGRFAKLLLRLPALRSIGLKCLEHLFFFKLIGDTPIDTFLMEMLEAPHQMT

[4] = biological target: T2, human thyroid hormone receptors TRα1 (Homo sapiens, UniProt P10827); assay: Receptor binding to TRα1 (gel filtration and scintillation proximity assay, labeled T3); details: SPA data; read-out: Ki TRα
T2 construct: made in house; host or cells: Sf9 insect cells (baculovirus)
T2 sequence (P10827 1-410 isoform P10827-2): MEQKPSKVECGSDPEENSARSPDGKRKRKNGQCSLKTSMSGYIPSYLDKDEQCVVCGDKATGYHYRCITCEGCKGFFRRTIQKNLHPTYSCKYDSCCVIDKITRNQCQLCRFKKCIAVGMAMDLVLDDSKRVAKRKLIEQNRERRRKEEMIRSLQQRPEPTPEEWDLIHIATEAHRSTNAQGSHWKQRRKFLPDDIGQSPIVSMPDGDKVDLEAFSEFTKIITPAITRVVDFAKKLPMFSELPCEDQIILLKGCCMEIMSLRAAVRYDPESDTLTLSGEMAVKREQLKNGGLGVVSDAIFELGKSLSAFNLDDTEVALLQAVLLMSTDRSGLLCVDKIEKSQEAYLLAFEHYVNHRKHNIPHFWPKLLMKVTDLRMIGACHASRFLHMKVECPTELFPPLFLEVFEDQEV
T2 sequence (P19793 1-462 partner): T1 sequence (P19793 1-462 partner)

[5] = Subacute study in cholesterol fed rats, PO: heart weight; assay type: in vivo; details: PO seven days, any dose tested
Procedure: as §1

[6] = system: thyroid stimulating hormone (TSH); assay: Circulating TSH in rats (cholesterol-fed, ZDF); assay type: in vivo
Procedure: Methods: mGPDH activity was analyzed in isolated mitochondria using 2-(4-iodophenyl)-3-(4-nitrophenyl)-5-phenyl tetrazolium chloride as the terminal electron acceptor (Gardner R S, Analytical Biochemistry 59:272 (1974)). Commercially available GPDH was used in each assay as a standard (Sigma, St. Louis, Mo.). Changes in levels of mRNA for liver and heart genes are analyzed using reverse transcriptase followed by real-time PCR analysis. The analysis is performed using an iCycler instrument (Biorad) and appropriate primers by means of standard methodology [e.g., Schwab D A et al. (2000) Life Sciences 66: 1683-94]. The amounts of mRNA are normalized to an internal control, typically, cyclophilin. Serum TSH is measured using an enzyme immunoassay (EIA) kit designed for rat TSH (Amersham Pharmacia Biotech, Arlington Heights, Ill.).
Another concern with synthetic thyromimetics is the suppression of the endogenous thyroid axis. Thyroid homeostasis is maintained by the action of thyroid releasing hormone (TRH) and thyroid stimulating hormone (TSH). […] Although this particular side effect has been noted, it has typically been treated with less concern than the cardiac safety issues. […] Therefore previous investigators have measured TSH levels when testing synthetic thyromimetics and have used a 30% decrease of TSH as the denominator in their therapeutic index calculations. […] Therefore, both compounds suppress TSH as doses lower than that required to decrease circulating cholesterol. […] However, 0.2 mg/kg/d of Compound 18 in 28 day treated ZDF rats, decreased TSH levels greater than 90%.

[7] = Cardiovascular activity in the Sprague Dawley rat (HR, LV dP/dt, aortic pressure, heart weight); assay type: in vivo; details: SD rats, 1 mg/kg p.o., 7 days
From the text: Method: […] The control group (n=6) was given vehicle only. […] On the 7th day after the start of dosing, animals were anesthetized with Isofluorane and the left ventricle cannulated with a high fidelity catheter tip transducer via the right carotid artery. Left ventricular pressure, its first derivative (LVdP/dt), lead I ECG, and heart rate (HR) triggered off the ECG waveform, were digitally recorded. LV dP/dt is a well accepted measure of ionotropic state. Systolic and diastolic aortic pressures were measured by retracting the catheter into the proximal aorta.

[8] = ZDF, rat, in vivo, po, 28 days
Procedure: Compound 18 was administered at doses up to 5 mg/kg/d. Compound cis-13-1 was administered at doses up to 50 mg/kg/d. We reasoned that the ZDF rat, as a metabolically challenged animal model, would be more sensitive to the potential adverse cardiac effects of thyromimetics than a normal, cholesterol-fed rat. At sacrifice, heart rate, and the first derivative of left ventricular pressure (LV dP/dt) were measured with a Millar catheter inserted into the left ventricle.

[9] = cholesterol-fed rat; cited from earlier work

Row | Km [1] [µM] | microsomal CLint ([2]; rat, liver microsomes from dexamethasone-treated rats, intrinsic clearance calculated from the kinetic parameters) [µL/min/mg] | Ki [3] [nM] | Ki [4] [nM] | decrease of TSH levels ([6]; ZDF rats, 0.2 mg/kg/d, 28 day) | TI for LV dP/dt (increase of 25%) [8] | SMILES | cholesterol lowering (plasma cholesterol) | doses that significantly decreased serum cholesterol (serum cholesterol) [mg/kg/day] | Vmax ([2]; dexamethasone treated rat microsomes, formation of Compound 7) [pmol/min/mg] | cardiac hypertrophy [5] | therapeutic index of TSH levels (30% decrease of TSH) ([6]; cholesterol-fed rats, treated for 7 days) | HR, LV dP/dt, and systolic aortic pressure [7] | Heart weight and heart weight normalized to body weight [7] | therapeutic index with respect to heart rate (ED15 HR/ED50 cholesterol) [8] | therapeutic index (TI) with respect to heart rate increases (ED15 HR/ED50 cholesterol) [9]
1 | 31 | 56 | 1980 | 2580 |  |  | Cc1cc(OC[P@@]2(=O)OCC[C@@H](c3cccc(Cl)c3)O2)cc(C)c1Cc1ccc(O)c(C(C)C)c1 [Compound 13-1-cis, Cis(S)-2-[(3,5-Dimethyl-4-(4′-hydroxy-3′-iso-propylbenzyl)phenoxy)methyl]-4-(3-Chlorophenyl)-2-oxo-2λ^5-[1,3,2]-dioxaphosphinane] | demonstrated a significant lowering of cholesterol | 0.6 to 50 | 1746 | No significant undesirable cardiac hypertrophy was observed |  |  |  |  | 
2 |  |  |  |  | greater than 90% | 0.15 | CC(C)c1cc(Oc2c(Cl)cc(CC(=O)O)cc2Cl)ccc1O [Compound 18, 3,5-dichloro-4-[4′-hydroxy-3′-iso-propylphenoxy]benzeneacetic acid, reference compound] |  | 1 |  |  | 0.4 | marked and statistically significant increases | significantly increased | 0.4 | 40
